Measurements as given in ChEMBL document CHEMBL1201862, “PubChem BioAssay data set” (2004).
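Five compound concentrations were applied to cells in 96-well plates for 48 hours; endpoints were derived by simple linear interpolation of the resulting dose-response curve. At the GI50, growth is halved.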 The source made the active and inactive calls. Rule as the data show it: active = GI50 up to about 1.1 µM and inactive = higher.

Legend:
Assay in all cases: NCI-60 cell line screen, 48 h
A498 = system: A498
A549 = system: A549
ACHN = system: ACHN
CAKI-1 = system: CAKI-1
CCRF-CEM = system: CCRF-CEM
COLO 205 = system: COLO 205
DLD-1 = system: DLD-1
DMS-114 = system: DMS-114
DMS-273 = system: DMS-273
EKVX = system: EKVX
HCC 2998 = system: HCC 2998
HCT-116 = system: HCT-116
HCT-15 = system: HCT-15
HL-60 = system: HL-60
HOP-18 = system: HOP-18
HOP-62 = system: HOP-62
HOP-92 = system: HOP-92
HT-29 = system: HT-29
IGROV-1 = system: IGROV-1
KM-20L2 = system: KM-20L2
KM12 = system: KM12
LOX IMVI = system: LOX IMVI
LXFL 529 = system: LXFL 529
M14 = system: M14
M19-MEL = system: M19-MEL
MOLT-4 = system: MOLT-4
Malme-3M = system: Malme-3M
NCI-H226 = system: NCI-H226
NCI-H23 = system: NCI-H23
NCI-H460 = system: NCI-H460
NCI-H522 = system: NCI-H522
OVCAR-3 = system: OVCAR-3
OVCAR-4 = system: OVCAR-4
OVCAR-5 = system: OVCAR-5
OVCAR-8 = system: OVCAR-8
RPMI-8226 = system: RPMI-8226
RXF 393 = system: RXF 393
SF-268 = system: SF-268
SF-295 = system: SF-295
SF-539 = system: SF-539
SK-MEL-28 = system: SK-MEL-28
SK-MEL-2 = system: SK-MEL-2
SK-MEL-5 = system: SK-MEL-5
SK-OV-3 = system: SK-OV-3
SN12C = system: SN12C
SNB-19 = system: SNB-19
SNB-75 = system: SNB-75
SNB-78 = system: SNB-78
SR = system: SR
SW-620 = system: SW-620
TK-10 = system: TK-10
U-251 = system: U-251
UACC-257 = system: UACC-257
UACC-62 = system: UACC-62
UO-31 = system: UO-31
XF498 = system: XF498
786-0 = system: 786-0
K562 = system: K562

## c1ccc([P+](Cc2csnn2)(c2ccccc2)c2ccccc2)cc1
A498
  GI50: > 100 µM (inactive)
A549
  GI50: > 100 µM (inactive)
ACHN
  GI50: > 100 µM (inactive)
CAKI-1
  GI50: > 100 µM (inactive)
CCRF-CEM
  GI50: > 100 µM (inactive)
COLO 205
  GI50: > 100 µM (inactive)
DLD-1
  GI50: > 100 µM (inactive)
DMS-114
  GI50: 64 µM (inactive)
DMS-273
  GI50: > 100 µM (inactive)
EKVX
  GI50: > 100 µM (inactive)
HCC 2998
  GI50: > 100 µM (inactive)
HCT-116
  GI50: > 100 µM (inactive)
HCT-15
  GI50: > 100 µM
HL-60
  GI50: > 100 µM (inactive)
HOP-18
  GI50: > 100 µM (inactive)
HOP-62
  GI50: > 100 µM (inactive)
HOP-92
  GI50: 80 µM (inactive)
HT-29
  GI50: > 100 µM (inactive)
IGROV-1
  GI50: > 100 µM (inactive)
KM-20L2
  GI50: > 100 µM (inactive)
KM12
  GI50: > 100 µM (inactive)
LOX IMVI
  GI50: > 100 µM (inactive)
LXFL 529
  GI50: > 100 µM (inactive)
M14
  GI50: > 100 µM (inactive)
M19-MEL
  GI50: > 100 µM (inactive)
MOLT-4
  GI50: > 100 µM (inactive)
Malme-3M
  GI50: > 100 µM (inactive)
NCI-H226
  GI50: > 100 µM (inactive)
NCI-H23
  GI50: > 100 µM (inactive)
NCI-H460
  GI50: > 100 µM (inactive)
NCI-H522
  GI50: > 100 µM (inactive)
OVCAR-3
  GI50: > 100 µM (inactive)
OVCAR-4
  GI50: > 100 µM (inactive)
OVCAR-5
  GI50: > 100 µM (inactive)
OVCAR-8
  GI50: > 100 µM (inactive)
RPMI-8226
  GI50: > 100 µM (inactive)
RXF 393
  GI50: 84.1 µM (inactive)
SF-268
  GI50: > 100 µM (inactive)
SF-295
  GI50: > 100 µM (inactive)
SF-539
  GI50: > 100 µM (inactive)
SK-MEL-28
  GI50: > 100 µM (inactive)
SK-MEL-2
  GI50: > 100 µM (inactive)
SK-MEL-5
  GI50: > 100 µM (inactive)
SK-OV-3
  GI50: > 100 µM (inactive)
SN12C
  GI50: > 100 µM (inactive)
SNB-19
  GI50: > 100 µM (inactive)
SNB-75
  GI50: > 100 µM (inactive)
SNB-78
  GI50: > 100 µM (inactive)
SR
  GI50: > 100 µM (inactive)
SW-620
  GI50: > 100 µM (inactive)
TK-10
  GI50: > 100 µM (inactive)
U-251
  GI50: > 100 µM (inactive)
UACC-257
  GI50: > 100 µM (inactive)
UACC-62
  GI50: 57.8 µM (inactive)
UO-31
  GI50: > 100 µM (inactive)
XF498
  GI50: > 100 µM (inactive)

## COc1cc(OC)c(C2CC=Cc3c(OC)cc(OC)c(OC)c32)cc1OC (configuration not stated)
786-0
  GI50: > 100 µM (inactive)
A498
  GI50: > 100 µM (inactive)
A549
  GI50: > 100 µM (inactive)
ACHN
  GI50: > 100 µM (inactive)
CAKI-1
  GI50: > 100 µM (inactive)
CCRF-CEM
  GI50: > 100 µM (inactive)
COLO 205
  GI50: > 100 µM (inactive)
DLD-1
  GI50: > 100 µM (inactive)
DMS-114
  GI50: > 100 µM (inactive)
DMS-273
  GI50: > 100 µM (inactive)
EKVX
  GI50: > 100 µM (inactive)
HCC 2998
  GI50: > 100 µM (inactive)
HCT-116
  GI50: > 100 µM (inactive)
HCT-15
  GI50: > 100 µM
HL-60
  GI50: > 100 µM (inactive)
HOP-18
  GI50: > 100 µM (inactive)
HOP-62
  GI50: > 100 µM (inactive)
HOP-92
  GI50: > 100 µM (inactive)
HT-29
  GI50: > 100 µM (inactive)
IGROV-1
  GI50: > 100 µM (inactive)
K562
  GI50: > 100 µM (inactive)
KM-20L2
  GI50: > 100 µM (inactive)
KM12
  GI50: > 100 µM (inactive)
LOX IMVI
  GI50: > 100 µM (inactive)
LXFL 529
  GI50: > 100 µM (inactive)
M14
  GI50: > 100 µM (inactive)
M19-MEL
  GI50: > 100 µM (inactive)
MOLT-4
  GI50: > 100 µM (inactive)
Malme-3M
  GI50: > 100 µM (inactive)
NCI-H226
  GI50: > 100 µM (inactive)
NCI-H23
  GI50: > 100 µM (inactive)
NCI-H460
  GI50: > 100 µM (inactive)
OVCAR-3
  GI50: > 100 µM (inactive)
OVCAR-4
  GI50: > 100 µM (inactive)
OVCAR-5
  GI50: > 100 µM (inactive)
OVCAR-8
  GI50: > 100 µM (inactive)
RPMI-8226
  GI50: > 100 µM (inactive)
RXF 393
  GI50: > 100 µM (inactive)
SF-268
  GI50: > 100 µM (inactive)
SF-295
  GI50: > 100 µM (inactive)
SF-539
  GI50: > 100 µM (inactive)
SK-MEL-28
  GI50: > 100 µM (inactive)
SK-MEL-2
  GI50: > 100 µM (inactive)
SK-MEL-5
  GI50: > 100 µM (inactive)
SK-OV-3
  GI50: > 100 µM (inactive)
SN12C
  GI50: > 100 µM (inactive)
SNB-75
  GI50: > 100 µM (inactive)
SNB-78
  GI50: > 100 µM (inactive)
SR
  GI50: > 100 µM (inactive)
SW-620
  GI50: > 100 µM (inactive)
TK-10
  GI50: > 100 µM (inactive)
U-251
  GI50: > 100 µM (inactive)
UACC-257
  GI50: > 100 µM (inactive)
UACC-62
  GI50: > 100 µM (inactive)
UO-31
  GI50: > 100 µM (inactive)
XF498
  GI50: > 100 µM (inactive)
